Among the data in ChEMBL document CHEMBL3886771, “Cyclopropanecarboxamido-substitute aromatic compounds as anti-tumor agents” (2016) are IC50 values, retold here.

The experiment has as its target Vascular endothelial growth factor receptor 2 (Homo sapiens, UniProt P35968). In words: Inhibition Assay: [Experimental method]: Use Lance@Ultra Ulight™-TK assay kit from PerKinElmer to evaluate the inhibitory activity of compounds at KDR kinase. [Instrument]: PerKinElmer's ENVISION plate reader. [Materials]: Optiplate-384 well plate (PerKinElmer), kinase buffer (50 mM Hepes pH7.5, 0.25 mM EGTA, 2 mM DTT, 0.01% Tween 20, 10 mM Mg2+, 0.5 mM Mn2+), KDR kinase (790-1356 AA, Crown Bioscience), KDR kinase substrate (PerKinElmer catalogue # TRF0127-M), Lance@Eu-W1024-anti-phosphotyrosine (PT66) (PerKinElmer, catalogue #AD0068), ATP (Invitrogen), DMSO (Sigma, catalogue #34869), purified water (Millipore, type: Milli-Q). [Study conditions]: Mix KDR (final concentration: 20 nM) and compound (final DMSO: 0.5%), pre-incubate for 20 min at 30° C.; then add ATP (final concentration: 90 μM) and the substrate (final concentration 50 μM). React for 2 hrs at 30° C. After the reaction, add antibody and reaction for 60 min at 30° C. Read the plate (615 nm, 665 nm), calculate the ratio of the value at 665 nm vs 615 nm and analyze the data.

Sequence of Vascular endothelial growth factor receptor 2 (P35968 whole entry, the tested form may be a part): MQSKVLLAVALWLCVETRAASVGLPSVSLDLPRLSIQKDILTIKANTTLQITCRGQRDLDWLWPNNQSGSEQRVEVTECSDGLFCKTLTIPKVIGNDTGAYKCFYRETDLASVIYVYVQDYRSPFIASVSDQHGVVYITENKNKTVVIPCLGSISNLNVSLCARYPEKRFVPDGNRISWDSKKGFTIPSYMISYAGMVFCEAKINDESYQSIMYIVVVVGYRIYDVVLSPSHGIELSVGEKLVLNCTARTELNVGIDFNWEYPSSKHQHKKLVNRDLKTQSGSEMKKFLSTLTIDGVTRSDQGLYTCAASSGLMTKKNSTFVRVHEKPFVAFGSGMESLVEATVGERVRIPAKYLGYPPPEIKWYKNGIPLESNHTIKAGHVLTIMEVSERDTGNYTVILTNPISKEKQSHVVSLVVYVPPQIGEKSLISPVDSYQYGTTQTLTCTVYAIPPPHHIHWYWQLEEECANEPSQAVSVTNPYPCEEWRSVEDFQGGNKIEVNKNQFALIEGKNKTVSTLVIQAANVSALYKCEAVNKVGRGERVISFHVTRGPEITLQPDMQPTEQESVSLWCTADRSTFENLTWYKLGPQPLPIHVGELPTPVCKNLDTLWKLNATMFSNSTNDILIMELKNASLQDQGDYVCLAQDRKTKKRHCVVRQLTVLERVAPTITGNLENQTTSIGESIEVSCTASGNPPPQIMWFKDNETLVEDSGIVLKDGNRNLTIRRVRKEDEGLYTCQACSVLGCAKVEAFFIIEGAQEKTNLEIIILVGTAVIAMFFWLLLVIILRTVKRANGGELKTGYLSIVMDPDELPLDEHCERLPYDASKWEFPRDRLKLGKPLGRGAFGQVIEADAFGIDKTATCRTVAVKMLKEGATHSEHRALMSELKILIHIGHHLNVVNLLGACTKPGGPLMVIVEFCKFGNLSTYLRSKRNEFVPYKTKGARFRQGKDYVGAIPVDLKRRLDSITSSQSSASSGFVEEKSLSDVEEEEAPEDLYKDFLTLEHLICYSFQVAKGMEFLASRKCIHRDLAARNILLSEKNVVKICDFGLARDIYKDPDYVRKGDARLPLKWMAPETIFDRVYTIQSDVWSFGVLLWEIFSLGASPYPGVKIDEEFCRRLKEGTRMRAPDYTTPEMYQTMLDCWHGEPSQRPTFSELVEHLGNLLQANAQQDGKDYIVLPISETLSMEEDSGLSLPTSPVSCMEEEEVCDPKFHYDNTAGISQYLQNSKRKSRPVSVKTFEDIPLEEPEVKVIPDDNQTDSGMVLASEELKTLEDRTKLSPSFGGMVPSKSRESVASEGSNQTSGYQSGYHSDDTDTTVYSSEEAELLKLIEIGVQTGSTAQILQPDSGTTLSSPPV

For orientation: IC50 means the concentration at which inhibition is half-maximal. For `O=C(Nc1ccc(Oc2ccnc(NC(=O)C3CC3)c2)c(F)c1)Nc1ccc(Cl)c(C(F)(F)F)c1`, the IC50 is 11.5 nM. The same measure for `CC(c1cc(NC(=O)Nc2ccc(Oc3ccnc(NC(=O)C4CC4)c3)c(F)c2)cc(C(F)(F)F)c1)N1CCNCC1` (configuration not stated): 26.6 nM.
